The values that follow come from ChEMBL document CHEMBL1777759, “Synthesis of benzologues of Nitazoxanide and Tizoxanide: a comparative study of their in vitro broad-spectrum antiprotozoal activity” (Bioorg Med Chem Lett, 2011).

Data set [1] relates to Trypanosoma cruzi. As to the kind of experiment: Antitrypanosomal activity against Trypanosoma cruzi MHOM/MX/1994/Ninoa epimastigotes after 72 hrs by neubauer chamber. The data set is classed as functional, organism-based.
The next data set has as its system Plasmodium berghei. The data set can be described thus: Antimalarial activity against Plasmodium berghei schizonts isolated from parasitized erythrocytes infected Wistar rat measured 16 hrs post compound exposure. The data set is classed as functional, organism-based.
Data set [2] is described as follows: Cytotoxicity against african green monkey Vero cells after 72 hrs by MTT assay. The data set is classed as cell-based. The following applies: chlorocebus sabaeus. For orientation: Formazan colour is commonly taken as a measure of viable cells.
In the next data set the test system is Leishmania mexicana. The data set can be described thus: Antileishmanial activity against Leishmania mexicana MHOM/MX/ISETGS promastigotes after 72 hrs by neubauer chamber. The format is functional, organism-based.
Data set [3] concerns Trypanosoma cruzi. As to the kind of experiment: Ratio of IC50 for benzanidazole to compound for Trypanosoma cruzi MHOM/MX/1994/Ninoa. The format is functional.
Data set [4] can be described thus: Selectivity index, ratio of CC50 for african green monkey Vero cells to IC50 for Giardia intestinalis IMSS:0696:1. The data set is classed as functional.
Another data set deals with Giardia intestinalis. As to the kind of experiment: Antiprotozoan activity against Giardia intestinalis IMSS:0696:1 trophozoites after 48 hrs. The data set is classed as functional, organism-based. Particulars: Giardia duodenalis, IMSS:0696:1, 48 h.
The nature of data set [5]: Selectivity index, ratio of CC50 for african green monkey Vero cells to IC50 for Trypanosoma cruzi MHOM/MX/1994/Ninoa. The data set is classed as functional.
Data set [6] is described as follows: Selectivity index, ratio of CC50 for african green monkey Vero cells to IC50 for Trichomonas vaginalis GT3. The data set is classed as functional.
The next data set deals with Trichomonas vaginalis. The data set can be described thus: Antiprotozoan activity against Trichomonas vaginalis GT3 trophozoites after 48 hrs. Particulars: GT3, 48 h. The format is functional, organism-based.
Data set [7] concerns Entamoeba histolytica. The data set can be described thus: Ratio of IC50 for pentamidine to compound for Entamoeba histolytica HM1-IMSS. The format is functional.
Data set [8] can be described thus: Selectivity index, ratio of CC50 for african green monkey Vero cells to IC50 for Plasmodium berghei. The format is functional.
The subject of data set [9] is Entamoeba histolytica. The data set can be described thus: Antiprotozoan activity against Entamoeba histolytica HM1-IMSS trophozoites after 48 hrs. The data set is classed as functional, organism-based.
The nature of data set [10]: Selectivity index, ratio of CC50 for african green monkey Vero cells to IC50 for Entamoeba histolytica HM1-IMSS. The format is functional.
The nature of data set [11]: Selectivity index, ratio of CC50 for african green monkey Vero cells to IC50 for Leishmania mexicana MHOM/MX/ISETGS. The data set is classed as functional.

A value given as a limit tells only on which side of the number the result lay.

As usually defined, the IC50 is the concentration that gives 50% inhibition. What is called CC50 is the concentration at which the toxic effect on the cells reaches its halfway point.

Consider `N=C(N)c1ccc(OCCCCCOc2ccc(C(=N)N)cc2)cc1` [PENTAMIDINE], for which the figures for the IC50 in the data set with Trypanosoma cruzi [1] and in the data set with Plasmodium berghei were > 50 µM and 2.94 µM, respectively. It took 47 µM to reach half-maximal cytotoxicity in data set [2] (CC50 at 72 h).

For the compound `O=C(Cn1ccnc1[N+](=O)[O-])NCc1ccccc1` [BENZNIDAZOLE], the IC50 is > 50 µM in the data set on Leishmania mexicana and 4.07 µM with Plasmodium berghei. Besides, it took 14 µM to reach half-maximal cytotoxicity in data set [2] (CC50 at 72 h).

`CC(=O)Oc1ccccc1C(=O)Nc1nc2ccc([N+](=O)[O-])cc2s1`: the “Ratio IC50” value in the data set on Trypanosoma cruzi [3] was found to be 7; in the data set with Entamoeba histolytica [7] it was 10. Besides, the IC50 turned out to be 4.89 µM in the data set on Trypanosoma cruzi [1]; 0.297 µM with Giardia intestinalis; 1.35 µM with Leishmania mexicana; 0.842 µM in the data set with Trichomonas vaginalis; 2.42 µM with Plasmodium berghei; 3.52 µM in the data set on Entamoeba histolytica [9]. The “Ratio CC50/IC50” value is given as 2300 in data set [4]; 140 in data set [5]; 811 in data set [6]; 282 in data set [8]; 194 in data set [10]; 506 in data set [11]. Besides, the CC50 at 72 h in [2] was 683 µM.

In the case of `Cc1ncc([N+](=O)[O-])n1CCO` [METRONIDAZOLE], the IC50 in the data set with Trypanosoma cruzi [1], with Leishmania mexicana and in the data set on Plasmodium berghei was > 50 µM each time. In addition, the CC50 at 72 h in data set [2] was 387 µM.

For the compound `O=C(Nc1ncc([N+](=O)[O-])s1)c1ccccc1O` [TIZOXANIDE], the IC50 with Trypanosoma cruzi [1] came out at 17.5 µM; in the data set on Giardia intestinalis, 0.716 µM; in the data set on Leishmania mexicana, 6.19 µM; with Trichomonas vaginalis, 0.211 µM; in the data set with Plasmodium berghei, 5.24 µM; in the data set with Entamoeba histolytica [9] it was 1.23 µM. Moreover, the “Ratio CC50/IC50” value is 542 in data set [4]; 22 in data set [5]; 1839 in data set [6]; 74 in data set [8]; 316 in [10]; 63 in data set [11]. For the same compound, in [2], the CC50 at 72 h was found to be 388 µM.

As to `O=C(Nc1nc2ccc([N+](=O)[O-])cc2s1)c1ccccc1O`, the IC50 was > 50 µM in the data set on Trypanosoma cruzi [1]; 0.59 µM in the data set with Giardia intestinalis; > 50 µM with Leishmania mexicana; 2.15 µM in the data set on Trichomonas vaginalis; 2.37 µM in the data set with Plasmodium berghei; 8.02 µM in the data set on Entamoeba histolytica [9]. The “Ratio CC50/IC50” value in data set [4] is 1029; in data set [6], 283; in data set [8], 256; in data set [10], 76. The same compound registered a CC50 at 72 h in data set [2] of 607 µM.

On to `CC(=O)Oc1ccccc1C(=O)Nc1ncc([N+](=O)[O-])s1` [NITAZOXANIDE], for which the IC50 in the data set on Trypanosoma cruzi [1] worked out at 18.7 µM; in the data set with Giardia intestinalis, 1.21 µM; in the data set on Leishmania mexicana it was 6.18 µM; in the data set on Trichomonas vaginalis, 0.068 µM; in the data set on Plasmodium berghei, 3.89 µM; with Entamoeba histolytica [9] it was 0.504 µM. The “Ratio CC50/IC50” value in [4] amounted to 686; in data set [5], 44; in [6] it was 12250; in [8], 214; in data set [10], 1653; in data set [11], 135. This compound gave a CC50 at 72 h in data set [2] of 833 µM.
